Experimental data taken from US20040259864A1, “Substituted pyrimidinone derivatives as ligands of integrin receptors” (priority 2001, published 2004).

Molecular target: T1, integrin αvβ3 (Homo sapiens, UniProt P05106+P06756)
T1 construct: from tissue; host or cells: human placenta
Assay: Integrin αvβ3 assay (competition with vitronectin for binding to solid-phase integrin αvβ3)
Conditions: integrin αvβ3 from human placenta, ranking in words only
Method: Integrin αvβ3 antagonists were identified and assessed using a test system based on competition between the natural integrin αvβ3 ligand vitronectin and the test substance for binding to integrin αvβ3 bound to a solid phase. […]
coat microtiter plates with 250 ng/ml integrin-αvβ3 in 0.05 M NaHCO3 pH 9.2; 0.1 ml/well; […]
saturate with 1% milk powder/assay buffer; 0.3 ml/well; 0.5 h/RT wash 3× with 0.05% Tween 20/assay buffer
Test substance in 0.1% milk powder/assay buffer, 50 μl/well+0 μg/ml or 2 μg/ml human vitronectin (Boehringer Ingelheim T007) in 0.1% milk powder/assay buffer, 50 μl/well; 1 h/RT […]
1 μg/ml anti human vitronectin antibody coupled to peroxidase (Kordia SAVN-APHRP) in 0.1%: milk powder/assay buffer; 0.1 ml/well; 1 h/RT […]
0.1 ml/well peroxidase substrate […]
stop reaction with 0.1 ml/well 2 M H2SO4 […]
measure the absorption at 450 nm
Integrin αvβ3: human placenta is solubilized with Nonidet, and integrin αvβ3 is affinity-purified on a GRGDSPK matrix (elution with EDTA). Contamination by integrin αIIbβ3 and human serum albumin, as well as the detergent and EDTA, are removed by anion exchange chromatography.
Assay buffer: 50 mM tris pH 7.5; 100 mM NaCl; 1 mM CaCl2; 1 mM MgCl2; 10 ΞM MnCl2 […]
Peroxidase substrate: mix 0.1 ml of TMB solution (42 mM TMB In DMSO) and 10 ml of substrate buffer (0.1 M Na acetate pH 4.9) and then add 14.7 pi of 3% H2O2. […]

`Cc1cn(CC(Cc2ccc3ccccc3c2)C(=O)O)c(=O)nc1N1CCC(Nc2nc3ccccc3[nH]2)CC1.O=C(O)C(F)(F)F` (stereo not shown) [Compound I, 2-[(1-{1-[2-Carboxy-3-(2-naphthyl)propyl]-5-methyl-2-oxo-1,2-dihydropyrimidin-4-yl)-piperidin-4-yl)amino]-1H-benzimidazol-1-ium trifluoroacetate] was tested, and the “IC50 values (concentration of the ligand at which 50% of the ligand is displaced)” value was “best result”.
